ChEMBL document CHEMBL1201862, “PubChem BioAssay data set” (2004)
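Five concentrations, 48 hours, 96-well plates. The concentration for 50% growth inhibition is given as GI50.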 Active and inactive are the calls of the source. No stated cut-off is given here; in the data, active = GI50 up to about 1.1 µM and inactive = higher.

What was measured:
Test in all cases: inhibition of tumour cell growth, NCI panel, 48 h
[1] = test system: RXF 393
[2] = test system: OVCAR-5
[3] = test system: HL-60
[4] = test system: SN12C
[5] = test system: MDA-MB-231
[6] = test system: UACC-62
[7] = test system: SK-OV-3
[8] = test system: CCRF-CEM
[9] = test system: NCI-H460
[10] = test system: HCC 2998
[11] = test system: SNB-19
[12] = test system: SK-MEL-28
[13] = test system: SK-MEL-2
[14] = test system: DU-145
[15] = test system: U-251
[16] = test system: MCF7
[17] = test system: PC-3
[18] = test system: SR
[19] = test system: K562
[20] = test system: M14

Measured: GI50

C=CCC1(C)CCCN(Cc2ccccc2)C1=O (stereo not given)
inactive: [1] > 10 µM | [2] > 10 µM | [3] > 10 µM | [4] > 10 µM | [5] > 10 µM | [6] > 10 µM | [7] > 10 µM | [8] > 10 µM | [9] > 10 µM | [10] > 10 µM | [11] > 10 µM | [12] > 10 µM | [13] > 10 µM | [14] > 10 µM | [15] > 10 µM | [16] > 10 µM | [17] > 10 µM | [18] > 10 µM | [19] > 10 µM | [20] > 10 µM

CN1CCCC(C(=O)OCC(=O)C2(O)CCC3C4CCC5=CC(=O)CCC5(C)C4C(O)CC32C)C1 (stereo not given)
inactive: [1] 8.49 µM | [2] 18.1 µM | [3] 3.69 µM | [4] 8.73 µM | [5] 4.32 µM | [6] 18.1 µM | [7] 16.3 µM | [8] 4.9 µM | [9] 11.5 µM | [10] 7.89 µM | [11] 8.05 µM | [12] 17.7 µM | [13] 19.5 µM | [14] 18.7 µM | [15] 4.29 µM | [16] 12.6 µM | [17] 11.4 µM | [18] 1.96 µM | [19] 9.12 µM | [20] 23.2 µM

Cc1cc2ccccc2n1CC(=O)N1CCCC1
inactive: [1] > 100 µM | [2] > 100 µM | [3] > 100 µM | [4] > 100 µM | [5] > 100 µM | [6] > 100 µM | [7] > 100 µM | [8] > 100 µM | [9] > 100 µM | [10] > 100 µM | [11] > 100 µM | [12] > 100 µM | [13] > 100 µM | [14] > 100 µM | [15] > 100 µM | [16] > 100 µM | [17] > 100 µM | [18] > 100 µM | [19] > 100 µM | [20] > 100 µM

COc1ccc(NC(=O)NNS(=O)(=O)c2ccc(C)cc2)cc1
inactive: [1] > 100 µM | [2] > 100 µM | [3] > 100 µM | [4] > 100 µM | [5] > 100 µM | [6] 70 µM | [7] > 100 µM | [8] > 100 µM | [9] > 100 µM | [10] > 100 µM | [11] > 100 µM | [12] > 100 µM | [13] > 100 µM | [14] > 100 µM | [15] > 100 µM | [16] > 100 µM | [17] 71 µM | [18] 63 µM | [19] > 100 µM | [20] > 100 µM

O=C1Nc2c(Cl)cc(Cl)cc2/C1=N/Nc1ccccc1[N+](=O)[O-]
inactive: [1] 14.2 µM | [2] > 100 µM | [3] 16.6 µM | [4] 85.9 µM | [5] 18.3 µM | [6] 22.2 µM | [7] 30.1 µM | [8] 46 µM | [9] 54.5 µM | [10] > 100 µM | [11] 23.7 µM | [12] 75.7 µM | [13] 18.2 µM | [14] > 100 µM | [15] 6.85 µM | [16] > 100 µM | [17] 40.8 µM | [18] 5.45 µM | [19] 38.6 µM | [20] 39.3 µM
